Key:
[1] = molecular target: T1, ODC (Homo sapiens, UniProt P11926); conditions: inhibition of ODC; cited from earlier work
T1 sequence (P11926 1-461): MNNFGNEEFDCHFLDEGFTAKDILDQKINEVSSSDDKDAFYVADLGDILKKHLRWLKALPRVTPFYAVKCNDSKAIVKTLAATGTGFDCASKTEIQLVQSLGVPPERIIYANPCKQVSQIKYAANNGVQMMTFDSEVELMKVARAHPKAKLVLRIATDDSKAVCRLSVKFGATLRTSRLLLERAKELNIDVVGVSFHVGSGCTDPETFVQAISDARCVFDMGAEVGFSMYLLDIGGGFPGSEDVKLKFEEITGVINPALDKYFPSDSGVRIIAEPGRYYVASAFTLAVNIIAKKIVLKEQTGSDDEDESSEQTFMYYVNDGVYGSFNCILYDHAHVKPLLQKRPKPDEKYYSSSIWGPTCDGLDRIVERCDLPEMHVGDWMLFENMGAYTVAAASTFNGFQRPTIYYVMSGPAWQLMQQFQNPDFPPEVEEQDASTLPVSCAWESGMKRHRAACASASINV

[2] = test system: HEK-293 cells; experiment: rescue from DFMO-induced growth inhibition (6 days, MTS/PMS dye assay); assay type: cell-based; conditions: 25 µM compound, 2.5 mM DFMO
Description: The rescue coefficient represents the ratio of cell growth, as measured by O.D., of the test compound with 2.5 mM DFMO versus 2.5 mM DFMO alone.
HEK-293 cells are plated in 96-well assay plates at 1,000 cells per well in 100 µL of medium (DMEM supplemented with 10% fetal bovine serum (Gibco), 1% penicillin, streptomycin and L-glutamine). The cells are incubated overnight at 37°C in an atmosphere of 5% CO2. Compounds are added the next day to a final concentration of 25 µM along with 1 mM aminoguanidine (inhibits serum amine oxidase) and 2.5 mM DFMO in a final volume of 200 µL medium. The positive control contained 25 µM spermidine. The cells are allowed to incubate for 6 days before cell growth is measured by MTS/PMS dye assay (Cell Titer 96 Aqueous Non-Radioactive Cell Proliferation Assay, Promega). […] Therefore, DFMO alone has a value of one. […] If the value is less than one, then the compound is growth inhibitory. If the value is 0, the compound is cytotoxic.

[3] = test system: antizyme; conditions: 10 µM; cited from earlier work
[4] = test system: antizyme frameshifting; experiment: dual luciferase reporter assay for antizyme frameshifting in HEK-293 cells; assay type: cell-based; conditions: for frameshift-rescue factor (FRF): %RF multiplied by the inverse of the rescue coefficient
Description: Frameshifting can be detected using a dual luciferase reporter system that measures the efficiency of antizyme translational frameshifting (Grentzmann, G. et. al., RNA 4:479-486 (1998); Howard, M. et. al., Genes to Cells 6:931-941 (2001)). Frameshifting efficiency is determined by comparing the ratio of firefly luciferase to renilla luciferase activity in cells transfected in parallel using a control vector containing a constitutive […] (AZ-IF) that measures the in-frame translation efficiency and a vector containing the inducible 0 to +1 frameshift (AZ1) construct. In these constructs, the renilla luciferase gene is upstream of the firefly luciferase gene which are separated by a short cloning sequence containing the portions of antizyme 1 and 2 known to contain the mRNA signals for polyamine stimulated frameshifting. Using a 96-well format, this assay system gives a quantitative measure of the efficiency of the polyamines, polyamine analogs and other compounds to induce frameshifting in a cell-based bioassay. Cells must be pretreated with α-difluoromethylomithine (DFMO), an irreversible inhibitor of ODC, prior to screening to decrease the basal antizyme frameshifting levels and increase the sensitivity to polyamine or compound-mediated stimulation of antizyme frameshifting.
Figure 1 is a tabular representation of a large number of polyamines A-S (25 µM) that were tested for their ability to induce antizyme frameshifting using the dual luciferase reporter assay. The percent relative frameshifting value (% RF) gives a comparison of the ability of a compound to induce frameshifting compared to 25 µM spermidine. The % RF was calculated as follows. The background percent frameshifting activity determined from the 2.5 mM DFMO negative control was subtracted from the percent frameshifting activity for all compounds including the spermidine control. The background corrected frameshifting activity of each compound was then divided by the background corrected frameshifting activity induced by 25 µM spermidine and multiplied by 100. The compounds were also evaluated for their ability to rescue cells from DFMO-induced growth inhibition by determining their rescue coefficient. The rescue coefficient represents the ratio of the cell growth, as measured by O.D., in the presence of the test compound with 2.5 mM DFMO to the growth in the presence of 2.5 mM DFMO alone. The frameshift-rescue factor (FRF) is a useful factor to compare the effectiveness of the various antizyme frameshifters by taking into account their potency for inducing frameshifting and ability to rescue cells from DFMO-induced growth inhibition. The FRF was calculated by multipling the %RF value by the inverse of the rescue coefficient.
Values represent percent frameshifting following transient transfection of an AZ1-IF control and the inducible 0 to +1 AZ1 plasmid construct into HEK-293 cells grown in the presence of 2.5 mM DFMO. The compounds were added to the cells after transfection and incubated overnight before assaying the next day. Each value represents triplicate measurements.
A series of compounds are screened for their ability to induce frameshifting using the dual luciferase reporter assay. HEK-293 cells are plated in white sided, clear-bottomed 96-well assay plates at 15,000 cells per well in 100 µL of medium (DMEM supplemented with 10% fetal bovine serum (Gibco), 1% penicillin, streptomycin and L-glutamine) containing 2.5 mM DFMO. […]

[5] = test system: HEK-293 cells; experiment: cells
Description: Cell number was determined by MTS/PMS assay from triplicate wells. Cells are plated in 96-well plates such that they would be in log growth for the duration of the assay. The day after plating, the polyamine analogs are added to the cells, and growth, if any, permitted to continue for six days in the presence of 1 mM AG and 1 µM SPD when appropriate. At the end of six days, cell growth is measured by MTS/PMS dye assay (Cell Titer 96 Aqueous Non-Radioactive Cell Proliferation Assay; Promega, Madison, WI).

[6] = test system: HEK-293 cells; experiment: intracellular polyamine levels (HPLC) and cell growth after 6-day incubation; assay type: cell-based
Description: Figure 6 is a graph showing the effect of a 6-day incubation of compound A on HEK-293 cellular polyamine levels and cell growth. All flasks received 1 mM aminoguanidine. Cells were washed, counted, lysed in perchloric acid, dansylated and polyamine levels determined by HPLC. Each value represents the average of triplicate values with the error bars representing standard deviation. Figure 7 illustrates the effect of extracellular compound A on the intracellular concentration of compound A in HEK-293 cells as determined by HPLC. Cells were prepared as in Figure 6. Peak area was normalized by dividing the peak area of the compound divided by the peak area of the internal standard, diaminoheptane. Values represent at least triplicate measurements with the error bars representing standard deviation.
Compound A is further evaluated to determine if it depletes intracellular polyamine levels in HEK-293 cells in a dose-dependent fashion (Fig. 6). […] After overnight incubation at 37°C in an atmosphere of 5% CO2, compound A is added along with 1 mM aminoguanidine. The flasks are then incubated for 6 days at 37°C in an atmosphere of 5% CO2. The cells are harvested by washing twice with ice-cold 1X PBS, trypsinized, counted, and lysed in 0.4 N perchloric acid. Diaminoheptane is used in all dansylation reactions as an internal standard. Peak area is normalized by dividing the peak area of the compound divided by the peak area of the internal standard. The HPLC method for the fluorometric detection of polyamines from the cell extracts is based on the procedure by Kabra (Kabra, P. M. et. al. J. Chromatogr. 380:19-32 (1986)).

For `NC/C=C/CN` [1,4-diamino-trans-2-butene], the Ki [1] is listed as 2 µM.

In the case of `Nc1ccc(N)cc1` [1,4-phenylenediamine], the Ki [1] is listed as 46 µM.

With `N=C(N)NCCCCN` [Agmatine, reference compound] the “ability to rescue cells from DFMO-induced growth inhibition” value [2] was “somewhat better than either A or B”.

For `CCNCCCCNCCCCNCCCCNCCCCNCC` [BE-4-4-4-4, 1,19-bis(ethylamino)-5,10,15-triazanonadecane], the “antizyme induction compared with spermine” value [3] is listed as “induce antizyme as well as spermine”.

In the case of `NCCCNCc1ccc(CN)cc1` [Compound A], the “frameshift-rescue factor (FRF)” value ([4]; 25 µM) is reported as 120, the EC50 ([4]; Homo sapiens, HEK293, HEK-293 cells, 2.5 mM DFMO, concentration giving 50% of the maximum percent frameshifting (plateau), read-out: EC50 for induction of frameshifting) is reported as ~120 µM and the “concentration range of compound A in which 1 µM spermidine rescues cells from growth inhibition” value ([5]; HEK-293 cells, addition of 1 µM spermidine) is reported as 3 to 100 µM. For the same compound, the IC50 ([5]; Homo sapiens, HEK293, 144 h, read-out: IC50 for growth inhibition, HEK-293 cells, 6 days, 1 mM aminoguanidine) was ~60 µM, the “cell growth decreasing by” value ([6]; 10 µM compound A, 6 days) was 32% and the “spermidine levels down by” value ([6]; 10 µM compound A, 6 days) was “about 90%”. The “cell growth decreasing by” value ([6]; 30 µM compound A, 6 days) was 38.5%, the “spermine levels reduced by” value ([6]; 100 µM compound A, 6 days) was 50% and the “spermine levels, percent of normal” value ([6]; compound A levels above 30 µM) was “approximately 50%”.

In the case of `NCCCCNCc1ccc(CNCCCN)cc1` [Compound B], the “potency in inducing antizyme frameshifting compared with agmatine” value ([4]; 25 µM, Fig 2) is reported as “more potent than agmatine”, the “frameshift-rescue factor (FRF)” value ([4]; 25 µM) is reported as 83 and the “ability to rescue cells from DFMO-induced growth inhibition” value [2] is reported as “neither compound A nor B significantly rescue cells”.

With `NCCCN(CCCN)Cc1ccc(CN(CCCN)CCCN)cc1` [Compound S, reference compound] the “%RF (percent relative frameshifting)” value ([4]; 25 µM compound, relative to 25 µM spermidine) was 100%.

In the case of `CCNCCCCNCCCCNCCCCNCC` [bisethylhomospermine], the “antizyme induction compared with spermine” value [3] is given as “induce antizyme as well as spermine”.

In the case of `CCNCCCNCCCNCCCNCC` [bisethylnorspermine], the “antizyme induction compared with spermine” value [3] is listed as “induce antizyme as well as spermine”.

Source: patent EP1813636A1, “Polyamine analogs that activate antizyme frameshifting” (MediQuest Therapeutics, Inc., priority 2004, dated 2007)
